Publication PMC5656836, “Distinct activation mechanisms trigger the trypanocidal activity of DNA damaging prodrugs” (Molecular Microbiology, 2017)
Where two headings read alike, the source gives them in different places.

What was measured:
Format in all cases: cell-based
[1] = test system: bloodstream form T. brucei; assay: Growth inhibition of wild type / control bloodstream form T. brucei (resazurin); conditions: for EC50: Trypanosoma brucei
T. cruzi epimastigotes = assay: Growth inhibition of T. cruzi epimastigotes (resazurin); conditions: for EC50: Trypanosoma cruzi, 336 h, read-out: T. cruzi EC50
L. major promastigotes = assay: Growth inhibition of L. major promastigotes (resazurin); conditions: for EC50: Leishmania major, 144 h, read-out: L. major EC50
[2] = test system: differentiated THP‐1 cells; assay: Mammalian inhibition assay, differentiated THP-1 cells; conditions: Homo sapiens, read-out: THP‐1 EC50
[3] = test system: T. brucei over expressing TbNTR (Tbntr++); assay: microbe, parasite or virus in culture; conditions: for EC50: Trypanosoma brucei, read-out: EC50 Tbntr++
[4] = test system: T. brucei over expressing TbCPR2 (Tbcpr2++); assay: microbe, parasite or virus in culture; conditions: for EC50: Trypanosoma brucei, read-out: EC50 Tbcpr2++
[5] = test system: T. brucei Tbsnm1 null mutants (ΔTbsnm1); assay: microbe, parasite or virus in culture; conditions: for EC50: Trypanosoma brucei, read-out: EC50 ΔTbsnm1
[6] = 72 h, bloodstream form, 3 days, Table 1, activity of some compounds previously reported (Hall et al., 2012), read-out: T. brucei EC50
[7] = 72 h, differentiated THP‐1 cells, 3 days
[8] = Selectivity Index: fold difference in EC50 of THP‐1 line relative to parasite
[9] = Table 2, parasites expressing wild type levels, read-out: EC50 Control
[10] = Table 4, wild type T. brucei, read-out: EC50 Control

SMILES | EC50 [1, 6] [nM] | EC50 (T. cruzi epimastigotes; epimastigotes, 14 days) [nM] | EC50 (L. major promastigotes; promastigotes, 6 days) [nM] | T. cruzi SI (T. cruzi epimastigotes) | EC50 ([1]; 72 h, read-out: T. brucei EC50) [nM] | EC50 (T. cruzi epimastigotes) [nM] | EC50 (L. major promastigotes) [nM] | further results
O=C1C(Br)=C(N2CC2)C(=O)C(Br)=C1N1CC1 [ABQ3] | 400 ± 30 | 6200 ± 1160 | 199 ± 4 |  |  |  |  | 
O=C1C(F)=C(N2CC2)C(=O)C(F)=C1N1CC1 [ABQ4] | 1180 ± 160 | 106 ± 25 | 663 ± 6 |  |  |  |  | 
COC1=C(N2CC2)C(=O)C(OC)=C(N2CC2)C1=O [ABQ6] | 283 ± 41 | 205 ± 53 | 664 ± 2 | 5 |  |  |  | EC50 [2, 7]: 1070 ± 159 nM
CCCOC1=C(N2CC2)C(=O)C(OCCC)=C(N2CC2)C1=O [ABQ8] |  |  |  | 2 | 670 ± 30 | 1300 ± 108 | 1870 ± 184 | T. brucei SI [1]: 4; L. major SI (L. major promastigotes): 2; EC50 ([2]; THP-1, 72 h): 2950 ± 770 nM
CC(C)NC1=C(N2CC2)C(=O)C(NC(C)C)=C(N2CC2)C1=O [ABQ13] |  |  |  |  | > 10000 | 5550 ± 240 | > 10000 | 
O=C1C(F)=C(N2CC2)C(=O)C(N2CCOCC2)=C1N1CC1 [ABQ14] |  |  |  |  | > 10000 | 445 ± 30 | 2270 ± 17 | 
CC(=O)NC1=C(N2CC2)C(=O)C(NC(C)=O)=C(N2CC2)C1=O [ABQ15] |  |  |  |  | > 10000 | 3310 ± 200 | > 10000 | 
C[C@@H]1CN1C1=CC(=O)C(N2C[C@H]2C)=CC1=O [ABQ23] | 2300 ± 60 | 2180 ± 670 | 348 ± 166 | <1 |  |  |  | T. brucei SI [1, 8]: <1; EC50 [1, 9]: 2940 ± 420 nM; EC50 [1, 10]: 2300 ± 60 nM; EC50 [2, 7]: < 400 nM; Fold difference in EC50 Tbntr++ relative to control [3]: 3315 ± 540 (1.13); EC50 [3]: 3320 nM; Fold difference in EC50 Tbcpr2++ relative to control [4]: 3556 ± 96 (1.21); EC50 [4]: 3560 nM; Ratio of EC50 values ΔTbsnm1 / control [5]: 1.01; Susceptibility of Tbsnm1 null mutants relative to wild type / control (fold more susceptible) [5]: no significant difference; EC50 [5]: 2410 ± 160 nM
C[C@H]1CN1C1=CC(=O)C(N2C[C@@H]2C)=CC1=O [ABQ24] | 1470 ± 120 | 37 ± 1 | 473 ± 123 | <11 |  |  |  | T. brucei SI [1, 8]: <1; EC50 [1, 9]: 1470 ± 120 nM; EC50 [1, 10]: 1470 ± 120 nM; L. major SI (L. major promastigotes): <1; EC50 [2, 7]: < 400 nM; Fold difference in EC50 Tbntr++ relative to control [3]: 2090 ± 160 (1.42); EC50 [3]: 2090 nM; Fold difference in EC50 Tbcpr2++ relative to control [4]: 1698 ± 23 (1.16); EC50 [4]: 1700 nM; Ratio of EC50 values ΔTbsnm1 / control [5]: 0.77; Susceptibility of Tbsnm1 null mutants relative to wild type / control (fold more susceptible) [5]: no significant difference; EC50 [5]: 1130 ± 100 nM
CC1CN1C1=C(Br)C(=O)C(N2CC2C)=C(Br)C1=O (stereo not shown) [ABQ25] | > 10000 |  | 80 ± 6 |  |  |  |  | L. major EC50 (L. major promastigotes; promastigotes, 6 days): high potency
CC1(C)CN1C1=C(Br)C(=O)C(N2CC2(C)C)=C(Br)C1=O [ABQ26] |  |  |  |  | > 10000 | 8640 ± 736 | 2360 ± 230 | 
CC1CN1C1=C(Cl)C(=O)C(N2CC2C)=C(Cl)C1=O (stereo not shown) [ABQ27] | > 10000 | 620 ± 180 | 210 ± 10 |  |  |  |  | 
CC1CN1C1=C(F)C(=O)C(N2CC2C)=C(F)C1=O (stereo not shown) [ABQ29] |  | 975 ± 25 | 175 ± 5 |  |  |  |  | 
CC1(C)CN1C1=C(F)C(=O)C(N2CC2(C)C)=C(F)C1=O [ABQ30] |  |  |  | 4 | 7400 ± 190 | 980 ± 25 | 174 ± 10 | T. brucei SI [1]: <1; EC50 ([1]; read-out: EC50 Control): 7400 ± 190 nM; L. major SI (L. major promastigotes): 22; EC50 ([2]; THP-1, 72 h): 3750 ± 320 nM; Fold difference in EC50 Tbntr++ relative to control [3]: 8670 ± 1670 (1.12); EC50 [3]: 8670 nM
